Assay results published in patent publication US9895344B2, “Treating various disorders with 7,8-dihydroxyflavone and derivatives thereof” (EMORY UNIVERSITY, priority 2008, dated 2018).
One block for each molecule: values may come before it.

Legend:
TrkB [1] = target: T1, TrkB (Rattus norvegicus, UniProt Q63604); assay: TrkB activation in primary cortical neurons (p-TrkB Y817 immunoblotting); format: cell-based; set-up: endogenous in cells; host or cells: primary cortical neurons; details: 500 nM, 30 min, FIG. 27 left
Method: Primary cultured rat cortical neurons were prepared as follows. E17 rat pups were decapitated and cortex was extirpated, cross chopped, and suspended by pipetting for separation in 5% fetal calf serum (FCS), 5% horse serum (HS) DMEM. The cell suspension was then centrifuged at 250×g for 5 minutes. This operation was repeated again. Cells were seeded into polyethyleneimine-coated 10 cm^2 dishes and 12-well plates including coated-coverslips and incubated at 37° C. in 5% CO2/95% air. After 3 hours, the culture medium was changed to Neurobasal containing B-27 supplement (Invitrogen; Carlsbad, Calif.) and incubated for 4 days. For maintenance, half of the culture medium was changed to fresh Neurobasal/B27 every 4 days. After 1 week, the dished cultured neurons were ready for use.
To compare the TrkB activation by the synthetic compounds of Examples 9 and 10 (see FIG. 26), primary cortical cultures were prepared. The cortical neurons were treated with 500 nM of various compounds for 30 min and collected the cell lysates. […] Replacing the H-bond acceptor O atom with hydrogen bond donor NH reduced its stimulatory effect. […] In comparison, 7,8-DHF provoked TrkB activation with the minimal concentration of 100 nM (FIG. 27, right panels).
Target sequence in this assay (Q63604 32-821): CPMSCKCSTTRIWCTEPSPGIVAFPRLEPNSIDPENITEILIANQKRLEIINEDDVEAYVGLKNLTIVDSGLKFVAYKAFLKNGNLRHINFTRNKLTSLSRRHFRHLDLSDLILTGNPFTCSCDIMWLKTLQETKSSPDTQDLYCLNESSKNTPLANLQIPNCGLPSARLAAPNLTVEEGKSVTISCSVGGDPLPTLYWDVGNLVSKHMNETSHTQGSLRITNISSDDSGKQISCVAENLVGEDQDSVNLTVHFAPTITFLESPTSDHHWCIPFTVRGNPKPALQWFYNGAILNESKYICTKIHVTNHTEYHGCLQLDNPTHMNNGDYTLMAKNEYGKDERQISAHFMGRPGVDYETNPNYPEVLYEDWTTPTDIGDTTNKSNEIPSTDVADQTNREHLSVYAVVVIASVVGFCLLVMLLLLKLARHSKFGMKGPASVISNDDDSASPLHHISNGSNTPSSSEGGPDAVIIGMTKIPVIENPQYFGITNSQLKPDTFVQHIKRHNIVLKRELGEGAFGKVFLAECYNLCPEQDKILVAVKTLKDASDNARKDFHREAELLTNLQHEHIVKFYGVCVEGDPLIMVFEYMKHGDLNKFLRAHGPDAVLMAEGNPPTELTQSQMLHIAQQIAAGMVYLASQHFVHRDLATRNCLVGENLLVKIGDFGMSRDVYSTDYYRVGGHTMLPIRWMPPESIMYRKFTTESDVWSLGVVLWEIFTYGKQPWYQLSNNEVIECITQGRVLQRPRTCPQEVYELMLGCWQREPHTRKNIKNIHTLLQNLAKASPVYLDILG

hippocampal neurons = assay: Glutamate-triggered apoptosis in hippocampal neurons; format: cell-based; details: pretreated 30 minutes, 50 μM glutamate for 16 hours, compared with BDNF, FIG. 6
Method: To examine whether these compounds could promote neuronal survival, hippocampal neurons were prepared and the cultures were pretreated with various flavone derivatives for 30 minutes, followed by treatment with 50 μM glutamate for 16 hours.

T48 cells = assay: Fluorescent apoptotic assay (Staurosporine, MR(DEVD)2) in TrkB stably transfected T48 cells; format: cell-based, murine; details: for suppression of apoptosis in T48 cell line: Staurosporine-induced apoptosis, FIG. 1B and FIG. 4; for EC50: Mus musculus, T48 cells, FIG. 5, read-out: effective concentration at which 50% (EC50) of the cells are protected from apoptosis
Description: Create and test reporter cell lines. In order to identify small molecules that mimic BDNF and activate TrkB, TrkB stably transfected murine cell lines were created. The T48 and T62 cell lines were created by transfecting basal forebrain SN56 cells, which express negligible TrkB, with a TrkB expression construct. […] To test resistance to apoptosis, SN56 cells and the T48 cell line were either untreated or treated with BDNF, and then subjected to an apoptotic assay. Briefly, the cells were treated with 0.75 μM Staurosporine for 9 hours, and 1 hour before the termination of the experiment, the cells were treated with 10 μM MR (DEVD)2. The cells were then fixed with 4% paraformaldehyde for 15 minutes, washed with phosphate buffered saline (PBS), and incubated with Hoechst 33342 for 10 minutes. Cover slides were washed with PBS, mounted, and the cells were examined using a fluorescent microscope to see which cells turned red upon caspase cleavage.
Cell-based screen. To screen a large number of chemicals, a cell-based apoptic assay was developed using a cell permeable fluorescent dye, MR (DEVD)2, which turns red upon caspase cleavage in apoptotic cells. SN56 and T48 cells were plated at 10,000 cells per well in multiple 96-well plates and exposed to 2000 biologically active compounds from the Spectrum Collection Library for 30 minutes at a concentration of 10 μM in DMSO. Following exposure to the compounds, the cells were subjected to the developed fluorescent apoptotic assay described above (method schematically shown in FIG. 2).
In the initial screen, 5 of the 66 positive compounds were flavone derivatives or similar compounds. […] To compare the apoptosis inhibitory activity, the flavone derivatives were preincubated with SN56 and T48 cells, and subsequently were subjected to the fluorescent apoptotic assay as described above. […] Additionally, the effective concentration at which 50% (EC50) of the cells are protected from apoptosis was determined for 7,8-dihydroxyflavone, Cianidanol, Pinocembrin and Diosmetin.

immobility = assay: Forced swim test, 5 days intraperitoneal; format: in vivo, mice; details: intraperitoneally for 5 days; imipramine 20 mg/kg, amitryptyline 15 mg/kg, 7,8-dihydroxyflavone 5 mg/kg; FIG. 25
Method: Adult male mice (2-3 months old, n=8) were randomly submitted, without a pre-swim, to a forced swim test of 6 minutes with immobility recorded in the last 4 minutes. Mice were injected intraperitoneally for 5 days with saline, imipramine (20 mg/kg), amitryptyline (15 mg/kg), or 7,8-dihydroxyflavone (5 mg/kg). The mice were allowed to adapt to the test room for 2 days, and the mice were placed in a clear glass cylinder with a diameter of 16 cm, half-filled with clear water at 24° C. […] Data are presented as mean±SEM; *p<0.05 against vehicle, **P<0.01 against vehicle and ***P<0.0001 against vehicle, student t-test.

Caspase-3 activation = assay: Glutamate-provoked Caspase-3 activation in wild-type and TrkB-/- cortical neurons; format: cell-based, mice; details: control compounds, FIG. 21
Method: To determine whether 7,8-dihydroxyflavone can selectively activate TrkB receptor and prevent neuronal cell death, cortical neurons were prepared from homozygous pups of TrkB+/−mice, which were mated to the same genotype. […] Glutamate nonselectively elicited weak TrkA phosphorylation in both wild-type and TrkB-null neurons (FIG. 21, row 3).

Akt = assay: Western analysis of Akt phosphorylation in hippocampal neurons; format: cell-based; details: FIG. 9
Method: (§1) To further examine whether 7,8-dihydroxyflavone can stimulate TrkB-mediated downstream signaling cascades, Western analysis was performed.
(§2) To probe the time course of 7,8-dihydroxyflavone triggered TrkB activation, hippocampal neurons were treated with 7,8-dihydroxyflavone at 500 nM and phosphorylation of Erk and Akt was determined over time by Western analysis. […] Stimulation of Erk and Akt by 7,8-dihydroxyflavone also occurred in a dose dependent manner.

Erk = assay: Western analysis of Erk phosphorylation in hippocampal neurons; format: cell-based; details: FIG. 9
Method: as §1, §2

TrkB [2] = target: T1, TrkB; assay: TrkB receptor dimerization in cotransfected HEK293 cells (GST pull-down); format: cell-based; set-up: expressed in transfected cells; host or cells: HEK293
Method: BDNF is known to bind the TrkB receptor and provoke its dimerization (Barbacid, J. Neurobiol., 25:1386-1403, 1994; Klein et al, Cell, 66:395-403, 1991). To explore whether 7,8-dihydroxyflavone triggers TrkB receptor dimerization, HEK293 cells were cotransfected with GST-TrkB and HA-TrkB or HA-TrkA. The cells were then treated with BDNF or small flavone compounds (0.5 μM) for 30 minutes. The cells were harvested, washed once in PBS, and lysed in 1 ml lysis buffer (50 mM Tris, ph 7.4, 150 mM NaCl, 1 mM EDTA, 0.5% Triton X-100, 1.5 mM Na3VO4, 50 mM NaF, 10 mM sodium pyrophosphate, 10 mM sodium β-glycerophosphate, 1 mM phenylmethylsulfonyl fluoride (PMSF), 5 mg/ml aprotinin, 1 mg/ml leupeptin, 1 mg/ml pepstatin A) and centrifuged for 10 minutes at 14,000×g at 4° C. The supernatant was transferred to a fresh tube and transfected TrkB receptor was separated from the supernatant with glutathione beads, and the coprecipitated proteins were resolved on SDS-PAGE.
Target sequence in this assay (Q63604 32-821): as above
Target sequence in this assay (Q63604 32-821): as above

KA-provoked apoptosis = assay: KA-provoked neuronal cell death in TrkB F616A knockin mice, intraperitoneal (caspase-3 immunoblot); format: in vivo
Method: To determine if 1NMPP1 would make neurons treated with 7,8-dihydroxyflavone vulnerable to KA-provoked neuronal cell death, TrkF616A knockin mice were fed with 1NMPP1 (25 mM) in drinking water one day prior to pharmacological reagent treatment. The next day, the mice were intraperitoneally injected with KA (25 mg/kg), or 7,8-dihydroxyflavone (5 mg/kg) 4 hours prior to KA injection. The control mice were injected with either KA or 7,8-dihydroxyflavone alone, or the mice were administered 7,8-dihydroxyflavone 4 hours before KA. In 4 days, the mice were sacrificed and the brains were homogenated and ultracentrifuged. The supernatant was employed for SDS-PAGE and immunoblotting analysis.

TrkB F616A = target: T2, TrkB F616A (Mus musculus, UniProt P15209, F616A); assay: TrkB phosphorylation in cortical neurons from TrkB F616A knockin mice; format: cell-based; details: inhibitor 100 nM, pretreated 30 minutes
T2 construct: endogenous in cells; host or cells: cortical neurons of TrkB F616A knock-in mice
T2 sequence (P15209 32-821 F616A): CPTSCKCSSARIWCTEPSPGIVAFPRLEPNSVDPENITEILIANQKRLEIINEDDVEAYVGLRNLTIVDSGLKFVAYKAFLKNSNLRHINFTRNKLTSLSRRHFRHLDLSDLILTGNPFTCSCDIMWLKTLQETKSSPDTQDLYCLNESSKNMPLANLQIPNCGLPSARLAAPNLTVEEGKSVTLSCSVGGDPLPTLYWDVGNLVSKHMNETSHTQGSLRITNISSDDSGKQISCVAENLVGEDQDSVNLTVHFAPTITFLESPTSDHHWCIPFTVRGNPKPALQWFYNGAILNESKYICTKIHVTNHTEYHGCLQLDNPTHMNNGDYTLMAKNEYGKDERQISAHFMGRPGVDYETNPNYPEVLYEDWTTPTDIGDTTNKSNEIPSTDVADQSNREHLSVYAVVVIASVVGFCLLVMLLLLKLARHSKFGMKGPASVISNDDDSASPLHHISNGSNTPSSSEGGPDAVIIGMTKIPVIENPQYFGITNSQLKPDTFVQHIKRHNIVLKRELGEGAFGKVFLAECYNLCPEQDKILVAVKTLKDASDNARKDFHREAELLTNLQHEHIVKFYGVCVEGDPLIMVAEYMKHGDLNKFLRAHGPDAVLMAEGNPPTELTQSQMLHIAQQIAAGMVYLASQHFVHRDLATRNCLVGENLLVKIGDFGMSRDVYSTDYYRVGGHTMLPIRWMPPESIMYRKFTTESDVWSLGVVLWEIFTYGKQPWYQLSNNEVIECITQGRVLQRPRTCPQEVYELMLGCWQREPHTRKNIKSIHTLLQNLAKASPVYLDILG
Method: (§3) To explore whether the neuroprotective action of 7,8-dihydroxyflavone is dependent on TrkB activation in vivo, TrkB F616A knockin mice were used. […] To further assess whether 7,8-dihydroxyflavone can mimic BDNF, cortical neurons were prepared from TrkB F616A knockin mice. The cortical neurons were pretreated for 30 minutes with either K252a Trk tyrosine kinase inhibitor (100 nM) or 1NMPP1 inhibitor (100 nM) followed by 0.5 μM 7,8-dihydroxyflavone for 30 minutes.

Akt and Erk1/2 = Akt and Erk1/2 activation in cortical neurons from TrkB F616A knockin mice; format: cell-based; details: inhibitor 100 nM
Method: as §3

immobility time = assay: Forced swim test in TrkB F616A knockin mice with saline or 1NMPP1 pretreatment; format: in vivo; details: 1NMPP1 25 μM in drinking water
Method: To assess whether the behavior responses by 7,8-DHF and its derivative are mediated by TrkB receptor, TrkB F616A knockin mice were utilized. The transgenic mice were subjected to saline or 1NMPP1 pretreatment (25 μM), respectively (drinking water provided one day prior to drug injection and maintained throughout whole experiment). The control and/or drugs were provided for five days. […] (Data presented in FIGS. 34, 35, and 36 as mean±SEM; *p<0.05 against vehicle, #P<0.01 against vehicle and ***P<0.0001 against vehicle, student t-test.)

TrkB activation (TrkB [1]): robustly provoked TrkB activation
Molecule: Br.O=c1cc(-c2cncnc2)oc2c(O)c(O)ccc12 [7,8-dihydroxy-2-(pyrimidin-5-yl)-4H-chromen-4-one.HBr]

Molecule: Oc1ccc2c(c1)O[C@H](c1ccc(O)c(O)c1)[C@@H](O)C2 [Fisetinidol]
protection of hippocampal neurons from glutamate-induced apoptosis (hippocampal neurons): no effect
suppression of apoptosis in T48 cell line (T48 cells): failed to suppress apoptosis

Molecule: CN(C)CCC=C1c2ccccc2CCc2ccccc21 [amitryptyline]
swimming immobility (immobility): decreased

EC50 (T48 cells): 500 nM
Molecule: COc1ccc(-c2cc(=O)c3c(O)cc(O)cc3o2)cc1O [Diosmetin, reference compound]
protection of hippocampal neurons from glutamate-induced apoptosis (hippocampal neurons): only slightly protected neurons
suppression of apoptosis in T48 cell line (T48 cells): strongly suppressed apoptosis
caspase-3 activation in both wild-type and TrkB-/- neurons (Caspase-3 activation): non-selectively suppressed caspase-3 activation in both neurons
Akt activation (Western) (Akt): activated
Erk activation (Western) (Erk): activated

Molecule: CN(C)CCCN1c2ccccc2CCc2ccccc21 [imipramine]
swimming immobility (immobility): decreased

Molecule: Br.O=c1cc(-c2ccc(F)cc2)[nH]c2c(O)c(O)ccc12 [2-(4-fluorophenyl)-7,8-dihydroxyquinolin-4(1H)-one.HBr]
TrkB activation (TrkB [1]): did not provoke the same level of TrkB activation

Molecule: Br.O=c1cc(-c2ccccc2)[nH]c2c(O)c(O)ccc12 [7,8-dihydroxy-2-phenylquinolin-4(1H)-one, 7,8-dihydroxy-2-phenylquinolin-4(1H)-one.HBr]
TrkB activation (TrkB [1]): did not provoke the same level of TrkB activation

Molecule: CC1=CC(=O)c2ccccc2C1=O [Menadione]
protection of hippocampal neurons from glutamate-induced apoptosis (hippocampal neurons): comparable anti-apoptosis activity as BDNF
suppression of apoptosis in T48 cell line (T48 cells): strongly suppressed apoptosis

TrkB dimerization (TrkB [2]; GST-TrkB and HA-TrkB, 0.5 μM, 30 minutes, FIG. 14): failed
EC50 (T48 cells): 100 nM
Molecule: O=C1C[C@@H](c2ccccc2)Oc2cc(O)cc(O)c21 [Pinocembrin, reference compound]
protection of hippocampal neurons from glutamate-induced apoptosis (hippocampal neurons): comparable anti-apoptosis activity as BDNF
suppression of apoptosis in T48 cell line (T48 cells): strongly suppressed apoptosis
caspase-3 activation in both wild-type and TrkB-/- neurons (Caspase-3 activation): non-selectively suppressed caspase-3 activation in both neurons
Erk activation (Western) (Erk): activated

Molecule: O=c1c(O)c(-c2ccc(O)c(O)c2)oc2cc(O)cc(O)c12 [Quercetin, reference compound]
Erk activation (Western) (Erk): activated

EC50 (T48 cells): 100 nM
Molecule: Oc1cc(O)c2c(c1)O[C@H](c1ccc(O)c(O)c1)[C@@H](O)C2 [Cianidanol]
protection of hippocampal neurons from glutamate-induced apoptosis (hippocampal neurons): comparable anti-apoptosis activity as BDNF
suppression of apoptosis in T48 cell line (T48 cells): strongly suppressed apoptosis
Erk activation (Western) (Erk): activated

Molecule: Oc1ccc([C@H]2Oc3cc(O)cc(O)c3C[C@H]2O)cc1 [Epiafzelechin]
protection of hippocampal neurons from glutamate-induced apoptosis (hippocampal neurons): only slightly protected neurons
suppression of apoptosis in T48 cell line (T48 cells): failed to suppress apoptosis

Molecule: CC(C)(C)n1nc(Cc2cccc3ccccc23)c2c(N)ncnc21 [1NMPP1]
effect of pretreatment on KA-provoked apoptosis (KA-provoked apoptosis; 1NMPP1 in drinking water): elevated KA-provoked apoptosis
apoptosis in TrkB F616A mice, treatment alone without KA (KA-provoked apoptosis; FIG. 24): no effect on apoptosis
blocking of BDNF-provoked TrkB phosphorylation (TrkB F616A): selectively blocked
blocking of 7,8-dihydroxyflavone-provoked TrkB phosphorylation (TrkB F616A; 0.5 μM 7,8-dihydroxyflavone): selectively blocked
blocking of BDNF-triggered Akt and Erk1/2 activation (Akt and Erk1/2): blocked
effect on Akt activation by 7,8-dihydroxyflavone (Akt and Erk1/2): partially decreased Akt activation
effect on Erk1/2 activation by 7,8-dihydroxyflavone (Akt and Erk1/2): failed to inhibit Erk1/2 activation
immobility time, 1NMPP1 treated versus saline control groups (immobility time): No significant difference

dimerization of TrkB with TrkA receptor (TrkB [2]; GST-TrkB and HA-TrkA cotransfected): failed to dimerize with TrkA receptor
B1: BDNF: brain-derived neurotrophic factor, positive control, from Roche (protein, UniProt P23560 19-247, looked up)
Neurotrophic factor BDNF …: APMKEANIRGQGGLAYPGVRTHGTLESVNGPKAGSRGLTSLADTFEHVIEELLDEDQKVRPNEENNKDADLYTSRVMLSSQVPLEPPLLFLLEEYKNYLDAANMSMRVRRHSDPARRGELSVCDSISEWVTAADKKTAVDMSGGTVTVLEKVPVSKGQLKQYFYETKCNPMGYTKEGCRGIDKRHWNSQCRTTQSYVRALTMDSKKRIGWRFIRIDTSCVCTLTIKRGR
suppression of apoptosis in T48 cell line (T48 cells): decreased apoptosis
